Source: patent US20070078262A1, “Thiomorpholino steroid compounds, the use thereof for the preparation of meiosis-regulating medicaments and method for the preparation thereof” (SCHERING AKTIENGESELLSCHAFT, priority 2003, published 2007)
Where “and” joins values, the source holds several entries; their conditions need not be identical. Equal entries are not always repeated.

How the values were obtained:
[1] = tested on: Cumulus Enclosed Oocytes (CEOs); test: Cumulus enclosed oocyte assay (meiosis activation in Hx-medium); format: cell-based, mice (C57BL/6J×DBA/2J F1); settings: for Meiosis Activation [%]: in the presence of Hx in CEOs
Description: Activation of MI arrested oocytes can be assessed by the disappearance of the germinal vesicle (GV). The disappearance of the GV, called germinal vesicle breakdown (GVB) is followed by the extrusion of the first polar body (PB) (C. Grøndahl, J. L. Ottesen, M. Lessi, P. Faarup, A. Murray, F C Grønvald, C. Hegele-Hartung, I. Ahnfelt-Rønne, “Meiosis-activating sterol promotes resumption of meiosis in mouse oocytes cultured in vitro in contrast to related oxysterols”, Biol. Reprod., 58, 1297-1302 (1998); C. Hegele-Hartung, J. Kuhnke, M. Lessi, C. Grøndahl, J. Ottesen, H. M. Beier, S. Eisner, U. Eichenlaub-Ritter, “Nuclear and cytoplasmic maturation of mouse oocytes after treatment with synthetic meiosis-activating sterol in vitro”, Biol. Reprod., 61, 1362-1372 (1999)).
Cumulus Enclosed Oocytes (CEOs) were obtained from immature female mice (C57BL/6J×DBA/2J F1) weighing 13-16 grams, that were kept under controlled temperature (20-22° C.), light (lights on 06:00-18:00) and relative humidity (50-70%). The mice received an intra-peritoneal injection of 0.2 ml gonadotropins containing 20 IU FSH. 48 hours later the animals were killed by cervical dislocation. The ovaries were dissected out and the oocytes were isolated in Hx-medium (see below) under a stereomicroscope by manual rupture of the follicles using a pair of 27-gauge needles. Cumulus enclosed oocytes displaying an intact germinal vesicle were placed in α-minimum essential medium (α-MEM without ribonucleosides supplemented with 8 mg/ml Human Serum Albumin (HSA), 0.23 mM pyruvate, 2 mM glutamine, 100 IU/ml penicillin and 100 μg/ml streptomycin). To maintain the oocytes in the germinal vesicle stage this medium was supplemented with 3 mM hypoxanthine, designated as Hx-medium.
The CEOs (35-45 CEOs in 0.4 ml Hx-medium) were cultured in a humidified atmosphere of 5% CO2 in air for 24 hours at 37° C. One control well (identical medium with no addition of test compound) was always cultured simultaneously with test wells.
By the end of the culture period the number of CEOs with germical vesicle (GV), germinal vesicle breakdown (GVB) and polar bodies (PB), respectively, were counted. The % GVB, defined as the percentage of CEOs undergoing GVB per total number of CEOs in that well, was calculated as: % GVB=(number of GVB+number of PB/total number of CEOs)×100
The % PB was defined as the percentage of CEOs displaying one extruded polar body per total number of CEOs in that well.
For each compound two experiments were performed and the results compared to Hx-medium as a control and FF-MAS at a concentration of 10 μM.

[2] = tested on: in vitro fertilized ova (2-cell embryos); test: Retransfer study / fertility trial (in vitro fertilized 2-cell embryos transferred into foster mothers); format: in vivo, mice; settings: for No. of Implantation Spots: Odds / No. of Viable Fetuses: Odds: successes divided by failures; for No. of Implantation Spots: Failures: transferred ova minus implantation spots; for No. of Viable Fetuses: Failures: transferred ova minus viable fetuses; for Odds Ratio for comparison to FF-MAS, No. of Implantation Spots / Odds Ratio for comparison to FF-MAS, No. of Viable Fetuses: versus FF-MAS 10 μM; for shows significant improvement of odds versus vehicle control, number of implantation spots: 95% confidence interval of odds ratio, all doses tested
Experimental: In vitro fertilization was performed as described above for the IVF experiment.
One day before the retransfer female recipient mice (foster mothers) in pro-estrus cycle state were mated with vasectomized males in order to trigger pseudogestation. One day later a vaginal check was performed. Animals with a positive, sperm-free vaginal plug (successful mating) entered the study. This day was designated day 0 of gestation (=day 0 after the sterile copulation, day 0 p.c.). […] 2-cell embryos were transferred into the right tube of the foster mothers on day 0 after the sterile copulation under anesthesia. The contra-lateral tube remained unused (check for pseudogestation). The foster mothers were sacrified on day 19 of gestation. The fetuses were removed and examined. The ovaries and uteri were removed immediately to record the number of implantation sites, viable and dead fetuses and resorptions. Apparently non-pregnant uteri were placed in a 10% aqueous solution of ammonium sulfide for about 10 min to stain possible implantation sites in the endometrium. The viable fetuses were individually weighed and their sex determined by inspection of their gonads.
In a fertility trial 269 mice were randomized into 6 groups and implanted with 7-10 in vitro fertilized ova. The in vitro fertilization took place in the presence of vehicle (group 1) or of a substance (groups 2 to 6).
The fertility raising effect of the substances in comparison to the vehicle control was of main interest. Moreover, an improvement compared to the substance FF-MAS was also investigated.
Variables of primary interest are the number of implantation spots and the number of viable fetuses.
The data for implantation spots as well as for viable fetuses have to be considered to have binary character, i.e. it can be expressed in rates or in a number of successes and failures with respect to the number of transferred ova. Therefore, methods as outlined by D. Collett: “Modelling Binary Data”, 2nd edition, Chapman & Hall/CRC, Boca Raton, constitute appropriate approaches to the data analysis.
The odds ratio of one group as compared to the other is defined as: odds ratio (group 1, group 2)=or1,2=odds (group 1)/odds (group 2)
where the odds of a group can be estimated by the number of successes divided by the number of failures in that group.
To reach statements about the significance of any findings, 95% confidence-intervals for the odds ratios are computed as: [ exp(log(or1,2)[…]1.96·se(log(or1,2))); exp(log(or1,2)+1.96·se(log(or1,2)))]
wherein se(log(or1,2)) is the standard error of the log odds ratio (see D. Collett (2003) for the corresponding formula).
As a basis for the computation of odds ratios, the number of successes (i.e., the number of implantation spots of number of viable fetuses) and failures (i.e., the number of transferred ova minus the number of implantation spots or number of viable fetuses) are computed for all groups.

[3] = tested on: mouse oocytes; test: In vitro fertilization (IVF) after in vitro maturation of oocytes; format: cell-based, mice (C57BL/6J×DBA/2J F1); settings: in vitro maturation without hypoxanthine, then IVF; n=18
Experimental: Changes in the subsequent IVF are therefore probably due to effects of the test compounds on cytoplasmic maturation.
Immature female mice (C57BL/6J×DBA/2J F1) in the age of 21-24 days were used as oocyte donors. Animals were given an i.p. injection of 10 IU pregnant mare serum gonadotropin (PMSG) to induce follicular growth. Animals were killed by cervical dislocation 48 hours later and the ovaries were dissected out. As sperm donors eight week old male mice (C57BL/6J×DBA/2J F1) were used.
Oocytes were isolated from the ovaries by manual rupture of the follicles using a pair of 27-gauge needles. Spherical naked oocytes (NkO) and CEOs displaying an intact GV were selected and placed in α-minimum essential medium (α-MEM without ribonucleosides, Gibco BRL, Gaithersburg; Cat. No. 22561) supplemented with 8 mg/ml human serum albumin (HSA), 0.23 mM pyruvate, 2 mM glutamine, 100 IU/ml penicillin and 100 μg/ml streptomycin.
The oocytes were rinsed three times in culture medium without oil overlay in 4-well multidishes containing 0.4 ml of the respective oocyte culture medium.
The oocyte culture medium was supplemented with 6.4% Fetal Bovine Serum (FBS). Solutions of novel compound IA and of the two compounds in comparison as mentioned were prepared from a stock solution containing 1 mg/ml of compound dissolved in absolute ethanol. The control group was cultured with a corresponding amount of ethanol.
After a culture time of 18-19 hours oocytes were further processed for in vitro fertilization. […] Oocytes were briefly washed without any test compound and subsequently transferred to the insemination dishes prepared in advance, which contained approximately 600.000 capacitated sperm cells per 500 μl IVF medium (obtained from the epididymides of male mice). The dishes were then incubated under defined gas conditions (5% CO2 in air) at 37° C. in a modified α-MEM IVF medium supplemented with 8 mg/ml HSA, 0.23 mM pyruvate, 100 IU penicillin/ml and 100 μg streptomycin/ml as described above for oocyte maturation.
Examination of the oocytes was carried out 22-24 hours after insemination in order to check fertilization and to record the number of pronucleus (PN) and 2-cell stage embryos. The fertilization rate was determined as the number of oocytes that had reached the PN or 2-cell embryo stage, relative to the total number inseminated.

[4] = tested on: rat oocytes (CEO and DO); settings: micromolar concentrations; CEO and DO cultured in vitro; cited from earlier work
[5] = tested on: follicle culture system; test: Follicle culture system (induction of maturation); format: cell-based
[6] = Solubility in water (measured by turbimetry)
[7] = 10 μM, Table 1, two experiments per compound, FF-MAS run in parallel

## C[C@H](CN1CCSCC1)[C@H]1CCC2=C3CC[C@H]4C(C)(C)[C@@H](O)CC[C@]4(C)[C@H]3CC[C@@]21C [Compound IB, (20S)-20-[(thiomorpholin-4-yl)methyl]-4,4-dimethyl-5α-pregna-8(14)-en-3β-ol]
[1]; [7]
  Meiosis Activation [%]: 15%

## C[C@H](CN1CCSCC1)[C@H]1CC=C2C3=C(CC[C@@]21C)[C@@]1(C)CC[C@H](O)C[C@@H]1CC3 [Compound IC, (20S)-20-[(thiomorpholin-4-yl)methyl]-5α-pregna-8,14-dien-3β-ol]
[1]; [7]
  Meiosis Activation [%]: 64% and 69%

## C[C@H](CN1CCSCC1)[C@H]1CC[C@H]2C3=CC=C4C(C)(C)[C@@H](O)CC[C@]4(C)[C@H]3CC[C@]12C [Compound ID, (20S)-20-[(thiomorpholin-4-yl)methyl]-4,4-dimethyl-pregna-5,7-dien-3β-ol]
[1]; [7]
  Meiosis Activation [%]: 89% and 58%

## C[C@H](CN1CCSCC1)[C@H]1CCC2=C3CC[C@H]4C[C@@H](O)CC[C@]4(C)[C@H]3CC[C@@]21C [Compound IE, (20S)20-[(thiomorpholin-4-yl)methyl]-5α-pregna-8(14)-en-3β-ol]
[1]; 1 μM, Table 2
  Meiosis Activation [%]: 44%
[1]; 3 μM, Table 2
  Meiosis Activation [%]: 24%
[1]; [7]
  Meiosis Activation [%]: 96% and 80%
[1]; 10 μM, Table 2
  Meiosis Activation [%]: 60%
[1]; CEOs in the presence of Hx
  efficiency of meiosis activation among the compounds tested: the most efficient compound tested

## C[C@H](CN1CCCCC1)[C@H]1CC=C2C3=C(CC[C@@]21C)[C@@]1(C)CC[C@H](O)C(C)(C)[C@@H]1CC3 [Compound No. 2, (20S)-20-[(piperidin-1-yl)methyl]-4,4-dimethyl-5α-pregna-8,14-dien-3β-ol]
[2]; 1 μM
  No. of Implantation Spots: Success: 97
  No. of Viable Fetuses: Success: 32
  Odds Ratio for comparison to vehicle control, No. of Implantation Spots: 1.09
  Odds Ratio for comparison to vehicle control, No. of Viable Fetuses: 0.98
  No. of Implantation Spots: Odds: 0.27
  No. of Viable Fetuses: Odds: 0.08
  No. of Implantation Spots: Failures: 357
  No. of Viable Fetuses: Failures: 422
  Odds Ratio for comparison to FF-MAS, No. of Implantation Spots: 0.91
  Odds Ratio for comparison to FF-MAS, No. of Viable Fetuses: 0.66
[2]; 10 μM
  No. of Implantation Spots: Success: 90
  No. of Viable Fetuses: Success: 37
  Odds Ratio for comparison to vehicle control, No. of Implantation Spots: 1.08
  Odds Ratio for comparison to vehicle control, No. of Viable Fetuses: 1.24
  No. of Implantation Spots: Odds: 0.27
  No. of Viable Fetuses: Odds: 0.10
  No. of Implantation Spots: Failures: 332
  No. of Viable Fetuses: Failures: 385
  Odds Ratio for comparison to FF-MAS, No. of Implantation Spots: 0.91
  Odds Ratio for comparison to FF-MAS, No. of Viable Fetuses: 0.83
[2]
  shows significant improvement of odds versus vehicle control, number of implantation spots: Neither
[1]; 10 μM, Table 2
  Meiosis Activation [%]: 48%
[3]
  fertilization rates of mouse oocytes compared to vehicle control (FIG. 3): higher fertilization rates

## CC(C)=CCC[C@@H](C)[C@H]1CC=C2C3=C(CC[C@@]21C)[C@@]1(C)CC[C@H](O)C(C)(C)[C@@H]1CC3 [FF-MAS, 4,4-dimethyl-5α-cholesta-8,14,24-trien-3β-ol]
[4]
  resumption of meiosis in rat oocytes arrested by IBMX: able to induce resumption of meiosis in a dose-dependent manner
[5]
  induction of maturation / activation of meiosis in a follicle culture system: not able to induce maturation
[2]; 10 μM
  No. of Implantation Spots: Success: 100
  No. of Viable Fetuses: Success: 45
  Odds Ratio for comparison to vehicle control, No. of Implantation Spots: 1.19
  Odds Ratio for comparison to vehicle control, No. of Viable Fetuses: 1.49
  No. of Implantation Spots: Odds: 0.30
  No. of Viable Fetuses: Odds: 0.12
  No. of Implantation Spots: Failures: 335
  No. of Viable Fetuses: Failures: 390
[2]
  shows significant improvement of odds versus vehicle control, number of implantation spots: Neither
[2]; FF-MAS 10 μM, compound IA 1 μM and 10 μM
  implantation rate per transferred 2-cell embryos (FIG. 4): higher numbers
[1]; 10 μM, Table 2
  Meiosis Activation [%]: 24%
[3]
  fertilization rates of mouse oocytes compared to vehicle control (FIG. 3): higher fertilization rates
[6]
  solubility: < 0.1 µg/mL
